According to patent publication US20240158446A1, “CYCLIC COMPOUND HAVING SELECTIVE INHIBITORY ACTION ON KRAS OVER HRAS AND NRAS” (CHUGAI SEIYAKU KABUSHIKI KAISHA, priority 2021, published 2024):
Like-named read-outs stand apart in the source and are kept apart here.

Assays:
[1] = molecular target: GDP-bound KRAS wild-type protein (Homo sapiens, UniProt P01116); test: Binding to KRAS by surface plasmon resonance (SPR), Single Cycle Kinetics; details: SPR, Single Cycle Kinetics
[2] = molecular target: GDP-bound NRAS wild-type protein (Homo sapiens, UniProt P01111); test: Binding to NRAS by surface plasmon resonance (SPR), Single Cycle Kinetics; details: SPR; for NRAS/KRAS (ratio of KD value for NRAS to KD value for KRAS): GDP-bound NRAS wild-type protein vs GDP-bound KRAS wild-type protein
[3] = molecular target: GDP-bound HRAS wild-type protein (Homo sapiens, UniProt P01112); test: Binding to HRAS by surface plasmon resonance (SPR), Single Cycle Kinetics; details: SPR; for HRAS/KRAS (ratio of KD value for HRAS to KD value for KRAS): GDP-bound HRAS wild-type protein vs GDP-bound KRAS wild-type protein
[4] = test system: human lung cancer strain NCI-H441;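 note: cell proliferation inhibition after four days measured by CellTiter-Glo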
[5] = GDP-bound KRAS wild-type protein, read-out: KRAS KD
[6] = 1:1 binding model, GDP-bound KRAS wild-type protein, read-out: KRAS KD

Chain of GDP-bound KRAS wild-type protein (P01116 whole entry): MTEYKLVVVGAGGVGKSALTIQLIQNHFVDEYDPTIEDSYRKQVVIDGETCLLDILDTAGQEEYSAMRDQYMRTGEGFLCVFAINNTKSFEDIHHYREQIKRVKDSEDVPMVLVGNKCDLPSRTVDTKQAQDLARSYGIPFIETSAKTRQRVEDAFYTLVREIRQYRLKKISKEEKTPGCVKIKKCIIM
Chain of GDP-bound HRAS wild-type protein (P01112 whole entry): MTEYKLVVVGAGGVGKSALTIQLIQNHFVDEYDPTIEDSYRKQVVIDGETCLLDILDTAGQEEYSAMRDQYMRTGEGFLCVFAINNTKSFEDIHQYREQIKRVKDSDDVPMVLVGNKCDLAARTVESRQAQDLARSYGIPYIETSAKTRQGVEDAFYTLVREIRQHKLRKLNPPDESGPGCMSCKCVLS
Chain of GDP-bound NRAS wild-type protein (P01111 whole entry): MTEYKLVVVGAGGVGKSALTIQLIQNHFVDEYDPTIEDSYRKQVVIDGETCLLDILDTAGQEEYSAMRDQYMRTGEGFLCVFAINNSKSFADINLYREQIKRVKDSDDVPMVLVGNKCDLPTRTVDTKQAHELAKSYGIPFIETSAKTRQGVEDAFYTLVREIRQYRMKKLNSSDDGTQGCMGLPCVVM

With CCOC[C@H]1C(=O)N[C@@H]([C@@H](C)CC)C(=O)N(C)CC(=O)N(C)[C@H]2C/C=C\CCN(C2=O)[C@@H](CC2CCC(F)(F)CC2)C(=O)N(C)CC(=O)N[C@@H](CCc2cc(F)c(C(F)(F)F)c(F)c2)C(=O)N2C[C@@H](C)C[C@H]2C(=O)NC2(CC(C)(C)C2)C(=O)N(C)[C@@H](C(CC)CC)C(=O)N(C)[C@H](C(=O)N(C)C)CC(=O)N1C [PP2462] the Kd [1, 5] was 1.6 nM, the “NRAS/KRAS (ratio of KD value for NRAS to KD value for KRAS)” value [2] was “A (a compound having 10 or more and less than 20 is denoted as A)” and the “HRAS/KRAS (ratio of KD value for HRAS to KD value for KRAS)” value [3] was “A (a compound having 10 or more and less than 20 is denoted as A)”. It also gave an IC50 [4] of 87.2 nM.

For CCO[C@@H]1C[C@H]2C(=O)NC3(CCC3)C(=O)N(C)[C@@H](C3CCCC3)C(=O)N(C)[C@H](C(=O)N3CCCC3)CC(=O)N(C)[C@@H](CC3CCC3)C(=O)N[C@@H]([C@@H](C)CC)C(=O)N(C)CC(=O)N(C)[C@H]3C/C=C\CCN(C3=O)[C@@H](Cc3ccc(C)cc3)C(=O)N(C)CC(=O)N[C@@H](CCc3cc(F)c(C(F)(F)F)c(F)c3)C(=O)N2C1 [PP1425], the Kd [1, 6] was 0.24 nM, the “NRAS/KRAS (ratio of KD value for NRAS to KD value for KRAS)” value ([2]; KD ratio class) was “A (a compound having 10 or more and less than 20 is denoted as A)” and the “HRAS/KRAS (ratio of KD value for HRAS to KD value for KRAS)” value ([3]; KD ratio class) was “B (a compound having 3 or more and less than 10 is denoted as B)”. The IC50 [4] was 20.2 nM.

CC[C@H](C)[C@@H]1NC(=O)[C@H](CC)N(C)C(=O)C[C@@H](C(=O)N2CCOCC2)N(C)C(=O)[C@H](C2CCCC2)N(C)C(=O)C2(CCCC2)NC(=O)[C@@H]2CCCN2C(=O)[C@H](CCc2ccc(C(F)(F)F)c(Cl)c2)NC(=O)CN(C)C(=O)[C@H](Cc2ccc(C(F)(F)F)cc2)N2C[C@H](C)CC[C@@H](C2=O)N(C)C(=O)CN(C)C1=O [PP1337] was tested, and the Kd [1, 6] was 0.17 nM, the “NRAS/KRAS (ratio of KD value for NRAS to KD value for KRAS)” value ([2]; KD ratio class) was “B (a compound having 3 or more and less than 10 is denoted as B)” and the “HRAS/KRAS (ratio of KD value for HRAS to KD value for KRAS)” value ([3]; KD ratio class) was “B (a compound having 3 or more and less than 10 is denoted as B)”. The IC50 [4] was 29.8 nM.

With CCC[C@H]1C(=O)N[C@@H]([C@@H](C)CC)C(=O)N(C)CC(=O)N(C)[C@H]2C/C=C\CCN(C2=O)[C@@H](Cc2ccc(C(F)(F)F)cc2)C(=O)N(C)CC(=O)N[C@@H](CCc2ccc(Cl)c(Cl)c2)C(=O)N2C[C@H](OCC)C[C@H]2C(=O)NC2(CCC2)C(=O)N(C)[C@@H](C(CC)CC)C(=O)N(C)[C@H](C(=O)N(C)C)CC(=O)N1C [PP1216] the Kd [1, 6] was 0.39 nM, the “NRAS/KRAS (ratio of KD value for NRAS to KD value for KRAS)” value ([2]; KD ratio class) was “AA (a compound having 20 or more is denoted as AA)” and the “HRAS/KRAS (ratio of KD value for HRAS to KD value for KRAS)” value ([3]; KD ratio class) was “A (a compound having 10 or more and less than 20 is denoted as A)”. It also gave an IC50 [4] of 19.8 nM.

CC[C@H](C)[C@@H]1NC(=O)[C@H](CC(C)C)N(C)C(=O)CSC[C@H](C(=O)N(C)C)N(C)C(=O)[C@H](C2CCCC2)N(C)C(=O)C2(CCCC2)NC(=O)[C@@H]2CCCN2C(=O)[C@@H](CCc2cc(F)c(C(F)(F)F)c(F)c2)NC(=O)CN(C)C(=O)[C@H](Cc2ccc(C(F)(F)F)cc2)N2CC=CC[C@@H](C2=O)N(C)C(=O)CN(C)C1=O [PP3108] was tested, and the Kd ([1]; 1:1 binding model, read-out: KD value with respect to GDP-bound KRAS wild-type protein) was 870 nM, the Kd [1, 5] was 870 nM and the “NRAS/KRAS (ratio of KD value for NRAS to KD value for KRAS)” value [2] was “C (A compound having a KD ratio of 0.1 or more and less than 3 is denoted as C)”. For the same compound, the “ratio of the KD value with respect to GDP-bound NRAS wild-type protein to the KD value with respect to KRAS” value ([2]; KD(NRAS)/KD(KRAS)) was “C (A compound having a KD ratio of 0.1 or more and less than 3 is denoted as C)”, the “HRAS/KRAS (ratio of KD value for HRAS to KD value for KRAS)” value [3] was “B (a compound having 3 or more and less than 10 is denoted as B)” and the “ratio of the KD value with respect to GDP-bound HRAS wild-type protein to the KD value with respect to KRAS” value ([3]; KD(HRAS)/KD(KRAS)) was “B (a compound having 3 or more and less than 10 is denoted as B)”. The IC50 ([4]; read-out: NCI-H441 cell proliferation inhibitory activity, 50% proliferation inhibitory concentration (IC50 value), NCI-H441, four days, CellTiter-Glo) was 9250 nM.

For CCC[C@H]1C(=O)N[C@@H](CC(C)C)C(=O)N(CC)CC(=O)N(C)[C@H]2C/C=C\CCN(C2=O)[C@@H](Cc2ccc(C)cc2)C(=O)N(C)CC(=O)N[C@@H](CCc2ccc(C(F)(F)F)c(OC)c2)C(=O)N2C[C@H](OCC)C[C@H]2C(=O)NC2(CC(C)(C)C2)C(=O)N(C)[C@@H](C2CCCC2)C(=O)N(C)[C@H](C(=O)N(C)C)CC(=O)N1C [PP2518], the Kd [1, 5] was 3.3 nM, the “NRAS/KRAS (ratio of KD value for NRAS to KD value for KRAS)” value [2] was “A (a compound having 10 or more and less than 20 is denoted as A)” and the “HRAS/KRAS (ratio of KD value for HRAS to KD value for KRAS)” value [3] was “A (a compound having 10 or more and less than 20 is denoted as A)”. The IC50 [4] was 81.2 nM.

CCO[C@@H]1C[C@H]2C(=O)NC3(CCCC3)C(=O)N(C)[C@@H](C3CCCC3)C(=O)N(C)[C@H](C(=O)N(C)C)CC(=O)N(C)[C@@H](CC(C)C)C(=O)N[C@@H]([C@@H](C)CC)C(=O)N(C)CC(=O)N(C)[C@H]3C/C=C\CCN(C3=O)[C@@H](CC3CCC(F)(F)CC3)C(=O)N(C)CC(=O)N[C@@H](CCc3cc(F)c(C(F)(F)F)c(F)c3)C(=O)N2C1 [PP1459] was tested, and the Kd [1, 6] was 0.2 nM, the “NRAS/KRAS (ratio of KD value for NRAS to KD value for KRAS)” value ([2]; KD ratio class) was “A (a compound having 10 or more and less than 20 is denoted as A)” and the “HRAS/KRAS (ratio of KD value for HRAS to KD value for KRAS)” value ([3]; KD ratio class) was “A (a compound having 10 or more and less than 20 is denoted as A)”. It also gave an IC50 [4] of 38.6 nM.

With CCO[C@@H]1C[C@H]2C(=O)NC3(CCC3)C(=O)N(C)[C@@H](C3CCCC3)C(=O)N(C)[C@H](C(=O)N(C)C)CC(=O)N(C)[C@@H](CC)C(=O)N[C@@H]([C@@H](C)CC)C(=O)N(C)CC(=O)N(C)[C@H]3CCCCCN(C3=O)[C@@H](Cc3ccc(F)cc3)C(=O)N(C)CC(=O)N[C@@H](CCc3cc(F)c(C(F)(F)F)c(F)c3)C(=O)N2C1 [PP1190] the Kd [1, 5] was 0.092 nM, the “NRAS/KRAS (ratio of KD value for NRAS to KD value for KRAS)” value [2] was “B (a compound having 3 or more and less than 10 is denoted as B)” and the “HRAS/KRAS (ratio of KD value for HRAS to KD value for KRAS)” value [3] was “B (a compound having 3 or more and less than 10 is denoted as B)”. The IC50 [4] was 15.5 nM.

CCO[C@@H]1C[C@H]2C(=O)NC3(CCC3)C(=O)N(C)[C@@H](C3CCCC3)C(=O)N(C)[C@H](C(=O)N3CCOCC3)CC(=O)N(C)[C@@H](Cc3ccsc3)C(=O)N[C@@H]([C@@H](C)CC)C(=O)N(C)CC(=O)N(C)[C@H]3CCCCCN(C3=O)[C@@H](Cc3ccc(C(F)(F)F)cc3)C(=O)N(C)CC(=O)N[C@@H](CCc3cc(F)c(C(F)(F)F)c(F)c3)C(=O)N2C1 [PP1164] was tested, and the Kd [1, 5] was 0.52 nM, the “NRAS/KRAS (ratio of KD value for NRAS to KD value for KRAS)” value [2] was “B (a compound having 3 or more and less than 10 is denoted as B)” and the “HRAS/KRAS (ratio of KD value for HRAS to KD value for KRAS)” value [3] was “B (a compound having 3 or more and less than 10 is denoted as B)”. The IC50 [4] was 95.9 nM.

CCO[C@@H]1C[C@H]2C(=O)NC3(CCC3)C(=O)N(C)[C@@H](C3CCCC3)C(=O)N(C)[C@H](C(=O)N3CCOCC3)CC(=O)N(C)[C@@H](Cc3cccs3)C(=O)N[C@@H]([C@@H](C)CC)C(=O)N(C)CC(=O)N(C)[C@H]3CCCCCN(C3=O)[C@@H](Cc3ccc(C(F)(F)F)cc3)C(=O)N(C)CC(=O)N[C@@H](CCc3cc(F)c(C(F)(F)F)c(F)c3)C(=O)N2C1 [PP1163] was tested, and the Kd [1, 5] was 0.59 nM, the “NRAS/KRAS (ratio of KD value for NRAS to KD value for KRAS)” value [2] was “B (a compound having 3 or more and less than 10 is denoted as B)” and the “HRAS/KRAS (ratio of KD value for HRAS to KD value for KRAS)” value [3] was “B (a compound having 3 or more and less than 10 is denoted as B)”. It also gave an IC50 [4] of 93.3 nM.

In the case of CCC[C@H]1C(=O)N[C@@H]([C@@H](C)CC)C(=O)N(C)CC(=O)N(C)[C@H]2C/C=C\CCN(C2=O)[C@@H](CC2CCC(F)(F)CC2)C(=O)N(C)CC(=O)N[C@@H](CCc2ccc(C(F)(F)F)c(Cl)c2)C(=O)N2C[C@H](OCC)C[C@H]2C(=O)NC2(CC(C)(C)C2)C(=O)N(C)[C@@H](C(CC)CC)C(=O)N(C)[C@H](C(=O)N(C)C)CC(=O)N1C [PP2498], the Kd [1, 5] is reported as 0.67 nM, the “NRAS/KRAS (ratio of KD value for NRAS to KD value for KRAS)” value [2] is reported as “A (a compound having 10 or more and less than 20 is denoted as A)” and the “HRAS/KRAS (ratio of KD value for HRAS to KD value for KRAS)” value [3] is reported as “A (a compound having 10 or more and less than 20 is denoted as A)”. For the same compound, the IC50 [4] was 21.9 nM.
